Experimental data reported in patent US20260216053A1, “COSMETIC COMPOSITION CONTAINING HOUTTUYNIA CORDATA FERMENTATION EXTRACT” (DAEBONG LS CO., LTD., priority 2022, published 2026).

Experiments:
Type in all cases: cell-based
HaCaT cells = experiment: Evaluation of cytotoxicity, EZ-Cytox assay; settings: for HaCaT cell growth rate: versus untreated group 100%
Description: (§1) HaCaT cells, which are skin keratinocytes, were provided by Cell Line Service GmbH (Germany). The cells were cultured in 5% CO2 incubator at 37° C. using Dulbecco's modified Eagle's medium (DMEM) containing 1% penicillin-streptomycin and 10% fetal bovine serum (FBS). Subculturing was performed with 2-3 day intervals.
The EZ-cytox assay is a representative method for measuring cell viability that utilizes the principle that a water-soluble tetrazolium salt (WST) reacts with the dehydrogenase of living cells to produce an orange-colored, water-soluble formazan.
To examine cytotoxicity, HaCaT cells were seeded at 1.0×10^4 cells/well in a 96-well plate using DMEM medium containing 10% FBS, and cultured under the condition of 37° C. and 5% CO2 for 24 hours. After exchanging the medium with serum-free DMEM, the cultured cells were treated with a sample to be evaluated. After that, EZ-cytox was added to each well and reacted under the condition of 37° C. and 5% CO2 for 30 minutes, and then absorbance was measured at 450 nm using a microplate reader. The average absorbance value for each sample group was calculated, and this value was compared with the absorbance value of the control group to evaluate cell viability.

[1] = system: filaggrin production in HaCaT cells; experiment: Production of moisturizing factor filaggrin (FLG), ELISA; settings: 24 hours, cell lysate, FIG. 3 and FIG. 4
Description: as §1
HaCaT cells were seeded at 1.0×10^5 cells/well in a 24-well plate and cultured for 24 hours under the condition of 37° C. and 5% CO2. After the cultured cell medium was replaced with serum-free DMEM, a sample was treated at different concentrations and the cells were cultured for 24 hours. Afterwards, the cells of each test group were lysed and proteins were collected. Then, the amount of filaggrin produced in the culture medium extract was measured. The measurement of filaggrin production was performed using the Filaggrin ELISA kit (Cusabio Biotechnology Co., Ltd) according to the method provided by the manufacturer. The result of measuring the amount of filaggrin produced depending on the quercetin treatment is shown in FIG. 3, and the result of measuring the amount of filaggrin produced depending on the treatment with the extracts of the example and comparative example is shown in FIG. 4.

[2] = system: hyaluronic acid production in HaCaT cells; experiment: Production of moisturizing factor hyaluronic acid (HA), ELISA; settings: 24 hours, supernatant, FIG. 1 and FIG. 2
Description: HaCaT cells, which are skin keratinocytes, were provided by Cell Line Service GmbH (Germany). The cells were cultured in 5% CO2 incubator at 37° C. using Dulbecco's modified Eagle's medium (DMEM) containing 1% penicillin-streptomycin and 10% fetal bovine serum (FBS). Subculturing was performed with 2-3 day intervals. HaCaT cells were seeded at 1.0×10^5 cells/well in a 24-well plate and cultured for 24 hours under the condition of 37° C. and 5% CO2. After the cultured cell medium was replaced with serum-free DMEM, a sample was treated at different concentrations and the cells were cultured for 24 hours. Afterwards, the supernatant from each test group was collected and the amount of hyaluronic acid (HA) produced in the medium was measured. A control group was treated with N-acetylglucosamine at a concentration of 10 mM. The measurement of hyaluronic acid production was performed using the Hyaluronan Quantikine ELISA kit (R&D Systems) according to the method provided by the manufacturer.

Structure (SMILES): O=c1c(O)c(-c2ccc(O)c(O)c2)oc2cc(O)cc(O)c12 [Quercetin, quercetin]
- HaCaT cell growth rate (HaCaT cells; 25 μM): 104.3 ± 1.3%
- HaCaT cell growth rate (HaCaT cells; 50 μM): 105.9 ± 1.0%
- HaCaT cell growth rate (HaCaT cells; 100 μM): 109.4 ± 2.1%
- HaCaT cell growth rate (HaCaT cells; 200 μM): 92.8 ± 2.8%
- Cytotoxicity for the skin keratinocytes (HaCaT cells; HaCaT cells, tested concentrations of Table 2): none of the example, comparative example or quercetin exhibited cytotoxicity
- Production of filaggrin [1]: promoted the production of the moisturizing factor filaggrin
- Production of hyaluronic acid [2]: promoted the production of the moisturizing factor hyaluronic acid
